Laboratory results published in PubChem BioAssay AID342 (DTP/NCI, 2004).
Where “and” joins values, the source holds several entries; their conditions need not be identical. Equal values may be shown once.

Test system: Swiss mice, Sarcoma 180 sc, mean tumor weight T/C
Experiment: NCI In Vivo Anticancer Drug Screen. Data for tumor model Sarcoma 180 (subcutaneous) in Swiss mice
Conditions: endpoint: mean tumor weight, higher = larger tumour
Procedure, shortened: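 Mice bearing transplanted tumors were treated with compound, and survival or tumor size was measured. Values are expressed as the treated-group measurement (T) divided by the vehicle-treated control measurement (C).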

[1] = dose: 50.0 mg/kg/injection, schedule: Q#A X014 (sc), vehicle: steriod suspending solution
[2] = dose: 10.0 mg/kg/injection, schedule: Q01DX007 (ip), vehicle: other

NCCCC(NC(=O)CCCCCCCCN=C(N)N)C(O)CCCCCCCCN=C(N)N (stereo not drawn)
T/C (dose: 0.38 mg/kg/injection, schedule: Q01DX007 (ip), vehicle: carboxymethylcellulose (CMC)): 100 % of control
T/C (dose: 0.75 mg/kg/injection, schedule: Q01DX007 (ip), vehicle: carboxymethylcellulose (CMC)): 97 % of control
T/C (dose: 1.5 mg/kg/injection, schedule: Q01DX007 (ip), vehicle: carboxymethylcellulose (CMC)): 113 % of control
T/C (dose: 3.0 mg/kg/injection, schedule: Q01DX007 (ip), vehicle: carboxymethylcellulose (CMC)): 76 % of control
T/C (dose: 6.0 mg/kg/injection, schedule: Q01DX007 (ip), vehicle: carboxymethylcellulose (CMC)): 92 % of control
T/C (dose: 9.0 mg/kg/injection, schedule: Q01DX007 (ip), vehicle: carboxymethylcellulose (CMC)): 123 % of control
T/C (dose: 12.0 mg/kg/injection, schedule: Q01DX007 (ip), vehicle: carboxymethylcellulose (CMC)): 68 % of control
T/C (dose: 15.0 mg/kg/injection, schedule: Q01DX007 (ip), vehicle: carboxymethylcellulose (CMC)): 47 % of control

NC(=O)SCC(=O)Nc1ccc2ncccc2c1
T/C (dose: 42.0 mg/kg/injection, schedule: Q#A X014 (ip), vehicle: methylcellulose (MC)): 84 % of control
T/C (dose: 63.5 mg/kg/injection, schedule: Q#A X014 (ip), vehicle: methylcellulose (MC)): 76 % of control
T/C (dose: 93.5 mg/kg/injection, schedule: Q#A X014 (ip), vehicle: methylcellulose (MC)): 58 % of control
T/C (dose: 140.0 mg/kg/injection, schedule: Q#A X014 (ip), vehicle: methylcellulose (MC)): 56 % of control
T/C (dose: 250.0 mg/kg/injection, schedule: Q01DX007 (ip), vehicle: other): 87 % of control
T/C (dose: 500.0 mg/kg/injection, schedule: Q01DX007 (ip), vehicle: other): 46 % of control

Brc1ccc(-c2csc(Nc3nc(-c4ccc(Br)cc4)cs3)n2)cc1
T/C (dose: 200.0 mg/kg/injection, schedule: Q01DX007 (ip), vehicle: carboxymethylcellulose (CMC)): 56 % of control and 73 % of control
T/C (dose: 300.0 mg/kg/injection, schedule: Q01DX007 (ip), vehicle: carboxymethylcellulose (CMC)): 52 % of control and 60 % of control
T/C (dose: 675.0 mg/kg/injection, schedule: Q01DX007 (ip), vehicle: carboxymethylcellulose (CMC)): 31 % of control

COc1ccc2c(c1)CC[C@@H]1[C@@H]2CC[C@@]2(C)[C@H]1CC[C@]2(C)O
T/C (dose: 0.5 mg/kg/injection, schedule: Q#A X014 (sc), vehicle: steriod suspending solution): 80 % of control
T/C (dose: 5.0 mg/kg/injection, schedule: Q#A X014 (sc), vehicle: steriod suspending solution): 113 % of control
T/C [1]: 68 % of control

C[C@@H]1C[C@@]2(C)[C@@H](CC[C@@H]3[C@@H]2CC[C@]2(C)[C@@H](O)CC[C@@H]32)CC1=O
T/C (dose: 25.0 mg/kg/injection, schedule: Q#A X014 (oral), vehicle: steriod suspending solution): 120 % of control
T/C (dose: 75.0 mg/kg/injection, schedule: Q#A X014 (oral), vehicle: steriod suspending solution): 75 % of control
T/C (dose: 187.5 mg/kg/injection, schedule: Q#A X014 (oral), vehicle: steriod suspending solution): 63 % of control

CCCCOP(=S)(N1CC1)N1CC1
T/C (dose: 0.25 mg/kg/injection, schedule: Q01DX007 (ip), vehicle: saline): 97 % of control
T/C (dose: 0.5 mg/kg/injection, schedule: Q01DX007 (ip), vehicle: saline): 73 % of control
T/C (dose: 0.75 mg/kg/injection, schedule: Q01DX007 (ip), vehicle: other): 124 % of control
T/C (dose: 0.75 mg/kg/injection, schedule: Q01DX007 (ip), vehicle: saline): 86 % of control
T/C (dose: 1.0 mg/kg/injection, schedule: Q01DX007 (ip), vehicle: saline): 70 % of control
T/C (dose: 1.5 mg/kg/injection, schedule: Q01DX007 (ip), vehicle: other): 79 % of control
T/C (dose: 1.5 mg/kg/injection, schedule: Q01DX007 (ip), vehicle: saline): 70 % of control
T/C (dose: 1.8 mg/kg/injection, schedule: Q01DX007 (ip), vehicle: saline): 33 % of control
T/C (dose: 2.8 mg/kg/injection, schedule: Q01DX007 (ip), vehicle: saline): 9 % of control
T/C (dose: 3.0 mg/kg/injection, schedule: Q01DX007 (ip), vehicle: other): 87 % of control
T/C (dose: 3.0 mg/kg/injection, schedule: Q01DX007 (ip), vehicle: saline): 57 % of control
T/C (dose: 4.3 mg/kg/injection, schedule: Q01DX007 (ip), vehicle: saline): 11 % of control
T/C (dose: 6.0 mg/kg/injection, schedule: Q01DX007 (ip), vehicle: other): 91 % of control
T/C (dose: 6.0 mg/kg/injection, schedule: Q01DX007 (ip), vehicle: saline): 31 % of control
T/C (dose: 6.6 mg/kg/injection, schedule: Q01DX007 (ip), vehicle: saline): 3 % of control
T/C (dose: 7.5 mg/kg/injection, schedule: Q#A X014 (ip), vehicle: saline): 28 % of control
T/C [2]: 103 % of control
T/C (dose: 10.0 mg/kg/injection, schedule: Q01DX007 (ip), vehicle: saline): 17 % of control
T/C (dose: 10.0 mg/kg/injection, schedule: Q## X000 (ip), vehicle: saline): 17 % of control
T/C (dose: 15.0 mg/kg/injection, schedule: Q## X000 (ip), vehicle: saline): 2 % of control
T/C (dose: 22.5 mg/kg/injection, schedule: Q## X000 (ip), vehicle: saline): 3 % of control

O=C1CCCCC1C(=O)C(F)(F)F (stereo not drawn)
T/C (dose: 27.75 mg/kg/injection, schedule: Q#A X014 (ip), vehicle: methylcellulose (MC)): 64 % of control
T/C (dose: 27.75 mg/kg/injection, schedule: Q#A X014 (ip), vehicle: saline): 64 % of control
T/C (dose: 41.65 mg/kg/injection, schedule: Q#A X014 (ip), vehicle: methylcellulose (MC)): 79 % of control
T/C (dose: 41.65 mg/kg/injection, schedule: Q#A X014 (ip), vehicle: saline): 81 % of control
T/C (dose: 55.0 mg/kg/injection, schedule: Q01DX007 (ip), vehicle: saline): 61 % of control
T/C (dose: 62.5 mg/kg/injection, schedule: Q#A X014 (ip), vehicle: methylcellulose (MC)): 34 % of control
T/C (dose: 62.5 mg/kg/injection, schedule: Q#A X014 (ip), vehicle: saline): 28 % of control
T/C (dose: 83.0 mg/kg/injection, schedule: Q01DX007 (ip), vehicle: saline): 44 % of control
T/C (dose: 93.75 mg/kg/injection, schedule: Q#A X014 (ip), vehicle: methylcellulose (MC)): 35 % of control and 52 % of control
T/C (dose: 93.75 mg/kg/injection, schedule: Q#A X014 (ip), vehicle: saline): 37 % of control
T/C (dose: 110.0 mg/kg/injection, schedule: Q02DX004 (ip), vehicle: saline): 40 % of control
T/C (dose: 125.0 mg/kg/injection, schedule: Q01DX007 (ip), vehicle: saline): 62 % of control
T/C (dose: 165.0 mg/kg/injection, schedule: Q03DX003 (ip), vehicle: saline): 63 % of control
T/C (dose: 166.0 mg/kg/injection, schedule: Q02DX004 (ip), vehicle: saline): 97 % of control
T/C (dose: 187.0 mg/kg/injection, schedule: Q01DX007 (ip), vehicle: saline): 47 % of control
T/C (dose: 250.0 mg/kg/injection, schedule: Q02DX004 (ip), vehicle: saline): 82 % of control
T/C (dose: 352.0 mg/kg/injection, schedule: Q03DX003 (ip), vehicle: carboxymethylcellulose (CMC)): 83 % of control
T/C (dose: 561.0 mg/kg/injection, schedule: Q03DX003 (ip), vehicle: saline): 53 % of control

C[C@]12CCC(=O)C=C1CC[C@@H]1[C@@H]2[C@@H](O)C[C@@]2(C)[C@H]1CC[C@]2(O)C(=O)COC(=O)c1ccc([N+](=O)[O-])cc1Cl
T/C (dose: 12.5 mg/kg/injection, schedule: Q#A X014 (sc), vehicle: steriod suspending solution): 79 % of control
T/C (dose: 25.0 mg/kg/injection, schedule: Q#A X014 (sc), vehicle: steriod suspending solution): 67 % of control
T/C [1]: 38 % of control
T/C (dose: 100.0 mg/kg/injection, schedule: Q#A X014 (sc), vehicle: steriod suspending solution): 32 % of control

N#[N+]c1nc[nH]c1C(N)=O
T/C (dose: 0.62 mg/kg/injection, schedule: Q#A X014 (ip), vehicle: methylcellulose (MC)): 61 % of control
T/C (dose: 1.25 mg/kg/injection, schedule: Q#A X014 (ip), vehicle: methylcellulose (MC)): 53 % of control
T/C (dose: 2.5 mg/kg/injection, schedule: Q#A X014 (ip), vehicle: methylcellulose (MC)): 55 % of control

CC(C)CCCCCCCCCCCCC(=O)NCC(=O)NC1C(O)C(O)C(Nc2ncnc3nc[nH]c23)OC1C(O)CO (stereo not drawn)
T/C (dose: 0.3 mg/kg/injection, schedule: Q## X000 (ip), vehicle: carboxymethylcellulose (CMC)): 63 % of control
T/C (dose: 0.44 mg/kg/injection, schedule: Q## X000 (ip), vehicle: carboxymethylcellulose (CMC)): 61 % of control
T/C (dose: 0.6 mg/kg/injection, schedule: Q01DX007 (ip), vehicle: carboxymethylcellulose (CMC)): 58 % of control and 70 % of control
T/C (dose: 0.66 mg/kg/injection, schedule: Q## X000 (ip), vehicle: carboxymethylcellulose (CMC)): 53 % of control
T/C (dose: 0.9 mg/kg/injection, schedule: Q01DX007 (ip), vehicle: carboxymethylcellulose (CMC)): 36 % of control and 56 % of control
T/C (dose: 1.0 mg/kg/injection, schedule: Q## X000 (ip), vehicle: carboxymethylcellulose (CMC)): 36 % of control
T/C (dose: 1.35 mg/kg/injection, schedule: Q01DX007 (ip), vehicle: carboxymethylcellulose (CMC)): 82 % of control

COC(=O)C1=CO[C@@H](C)[C@@H]2Cn3ccc4c5ccccc5nc-4c3C[C@H]12
T/C [2]: 113 % of control
T/C (dose: 50.0 mg/kg/injection, schedule: Q01DX007 (ip), vehicle: other): 74 % of control
